The source of these data is patent publication US20230257393A1, “MACROMOLECULE-SUPPORTED THIENOAZEPINE COMPOUNDS, AND USES THEREOF” (BOLT BIOTHERAPEUTICS, INC., priority 2020, published 2023).

Molecules are shown by their SMILES. Where two headings read alike, the source gives them in different places. Where only a bound is given, the exact number is not on record here.

For one assay, the target named is T1, human TLR7 (Homo sapiens, UniProt Q9NYK1).
T1 construct: host or cells: HEK293 reporter cells
T1 sequence (Q9NYK1 27-1049): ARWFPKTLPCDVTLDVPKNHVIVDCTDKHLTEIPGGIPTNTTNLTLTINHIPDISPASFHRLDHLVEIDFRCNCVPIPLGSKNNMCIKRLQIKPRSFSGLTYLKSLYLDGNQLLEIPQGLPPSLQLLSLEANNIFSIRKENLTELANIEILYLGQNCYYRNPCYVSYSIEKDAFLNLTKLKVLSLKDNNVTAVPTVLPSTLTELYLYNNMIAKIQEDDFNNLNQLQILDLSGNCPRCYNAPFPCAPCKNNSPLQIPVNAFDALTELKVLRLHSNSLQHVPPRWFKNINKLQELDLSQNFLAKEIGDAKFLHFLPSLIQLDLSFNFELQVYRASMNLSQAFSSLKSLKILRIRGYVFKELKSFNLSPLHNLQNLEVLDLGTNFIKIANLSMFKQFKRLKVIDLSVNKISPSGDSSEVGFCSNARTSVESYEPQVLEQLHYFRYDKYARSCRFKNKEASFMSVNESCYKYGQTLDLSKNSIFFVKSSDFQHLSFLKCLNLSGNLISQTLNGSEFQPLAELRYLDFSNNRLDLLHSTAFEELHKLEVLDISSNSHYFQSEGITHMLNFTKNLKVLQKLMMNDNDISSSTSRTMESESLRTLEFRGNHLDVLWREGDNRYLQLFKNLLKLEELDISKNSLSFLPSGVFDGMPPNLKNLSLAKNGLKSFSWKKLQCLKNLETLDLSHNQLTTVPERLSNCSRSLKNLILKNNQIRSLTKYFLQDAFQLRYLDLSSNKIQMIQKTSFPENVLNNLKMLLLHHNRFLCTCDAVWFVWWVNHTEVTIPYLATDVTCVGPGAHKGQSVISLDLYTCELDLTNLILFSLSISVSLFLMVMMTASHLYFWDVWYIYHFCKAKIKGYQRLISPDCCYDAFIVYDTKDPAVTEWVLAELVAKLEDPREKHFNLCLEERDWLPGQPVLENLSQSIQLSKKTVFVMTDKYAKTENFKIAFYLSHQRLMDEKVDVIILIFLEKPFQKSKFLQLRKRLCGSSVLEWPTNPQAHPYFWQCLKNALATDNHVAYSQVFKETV
In words: HEK Reporter Assay, HEK293 NFKB reporter cells expressing human TLR7. It is filed as cell-based. Particulars: read-out: HEK293 hTLR7 EC50. The protocol: (§1) Each compound was synthesized, purified, and characterized by mass spectrometry and shown to have the mass indicated. Additional experimental procedures are found in the Examples. Activity against HEK293 NFKB reporter cells expressing human TLR7 or human TLR8 was measured according to Example 202.
(§2) HEK293 reporter cells expressing human TLR7 or human TLR8 were purchased from Invivogen and vendor protocols were followed for cellular propagation and experimentation. Briefly, cells were grown to 80-85% confluence at 5% CO2 in DMEM supplemented with 10% FBS, Zeocin, and Blasticidin. Cells were then seeded in 96-well flat plates at 4×10^4 cells/well with substrate containing HEK detection medium and immunostimulatory molecules. Activity was measured using a plate reader at 620-655 nm wavelength.

A further assay addresses T2, human TLR8 (Homo sapiens, UniProt Q9NR97).
T2 construct: host or cells: HEK293 reporter cells
T2 sequence (Q9NR97 27-1041): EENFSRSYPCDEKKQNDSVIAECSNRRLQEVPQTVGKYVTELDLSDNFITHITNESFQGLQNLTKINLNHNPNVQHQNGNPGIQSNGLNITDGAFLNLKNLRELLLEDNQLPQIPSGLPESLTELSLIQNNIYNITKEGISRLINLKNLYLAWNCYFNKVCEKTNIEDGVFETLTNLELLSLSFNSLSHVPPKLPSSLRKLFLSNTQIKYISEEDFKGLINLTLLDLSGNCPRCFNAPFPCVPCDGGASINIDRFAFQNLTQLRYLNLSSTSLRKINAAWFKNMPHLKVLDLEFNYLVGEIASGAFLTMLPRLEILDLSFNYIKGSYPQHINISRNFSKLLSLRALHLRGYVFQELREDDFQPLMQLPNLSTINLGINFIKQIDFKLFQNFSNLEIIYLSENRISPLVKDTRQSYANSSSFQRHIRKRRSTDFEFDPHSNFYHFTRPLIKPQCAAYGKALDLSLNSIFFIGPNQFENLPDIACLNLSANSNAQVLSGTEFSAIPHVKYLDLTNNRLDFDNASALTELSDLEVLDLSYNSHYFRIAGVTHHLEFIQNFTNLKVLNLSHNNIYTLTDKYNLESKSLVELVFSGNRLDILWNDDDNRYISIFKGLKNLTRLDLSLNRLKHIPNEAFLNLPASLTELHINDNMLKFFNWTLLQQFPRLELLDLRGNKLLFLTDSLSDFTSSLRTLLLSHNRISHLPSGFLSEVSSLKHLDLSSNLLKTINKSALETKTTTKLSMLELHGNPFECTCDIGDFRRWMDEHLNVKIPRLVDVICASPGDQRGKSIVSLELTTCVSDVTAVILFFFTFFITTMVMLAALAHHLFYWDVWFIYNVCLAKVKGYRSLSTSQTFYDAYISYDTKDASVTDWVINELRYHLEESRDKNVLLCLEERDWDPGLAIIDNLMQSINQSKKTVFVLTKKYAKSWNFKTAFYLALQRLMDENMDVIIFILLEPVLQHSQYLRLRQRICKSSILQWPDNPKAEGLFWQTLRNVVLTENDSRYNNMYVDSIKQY
Put plainly: HEK Reporter Assay, HEK293 NFKB reporter cells expressing human TLR8. It counts as cell-based. The note with it: read-out: HEK293 hTLR8 EC50. The protocol: as §1, §2

For `CCCN(CCC)C(=O)C1=Cc2sc(Br)cc2N=C(N)C1` [TAZ-1, 5-amino-2-bromo-N,N-dipropyl-6H-thieno[3,2-b]azepine-7-carboxamide], the EC50 on human TLR7 (Table 1a) and on human TLR8 (Table 1a) was greater than 9 µM throughout. Take `CCCN(CCC)C(=O)C1=Cc2sc(C(=O)Nc3ccc(N4CCC(C(=O)NCCNC(=O)OC(C)(C)C)CC4)nc3)cc2N=C(N)C1` [TAZ-3, tert-butyl (2-(1-(5-(5-amino-7-(dipropylcarbamoyl)-6H-thieno[3,2-b]azepine-2-carboxamido)pyridin-2-yl)piperidine-4-carboxamido)ethyl)carbamate]: the concentration giving a half-maximal response (EC50) at human TLR7 (Table 1a) and at human TLR8 (Table 1a) was greater than 9 µM each time. As to `CCCN(CCC)C(=O)C1=Cc2sc(-c3cccc(S(=O)(=O)N4CC(CO)C4)c3)cc2N=C(N)C1` [TAZ-4, 5-amino-2-[3-[3-(hydroxymethyl)azetidin-1-yl]sulfonylphenyl]-N,N-dipropyl-6H-thieno[3,2-b]azepine-7-carboxamide], the 50% effective concentration (EC50) at human TLR7 (Table 1a) and on human TLR8 (Table 1a) was greater than 9 µM in each case. As for `CCCN(CCC)C(=O)C1=Cc2sc(C)cc2N=C(N)C1` [TAZ-7, 5-amino-2-methyl-N,N-dipropyl-6H-thieno[3,2-b]azepine-7-carboxamide], the EC50 at human TLR7 (Table 1a) and on human TLR8 (Table 1a) was greater than 9 µM in each case. For `CCCN(CCCNC(=O)OC(C)(C)C)C(=O)C1=Cc2sc(Br)cc2N=C(N)C1` [TAZ-9, tert-butyl N-[3-[(5-amino-2-bromo-6H-thieno[3,2-b]azepine-7-carbonyl)-propyl-amino]propyl]carbamate], the EC50 at human TLR7 (Table 1a) and on human TLR8 (Table 1a) was greater than 9 µM throughout. `CCCN(CCCN)C(=O)C1=Cc2sccc2N=C(N)C1` [TAZ-11, 5-amino-N-(3-aminopropyl)-N-propyl-6H-thieno[3,2-b]azepine-7-carboxamide]: the EC50 at human TLR7 (Table 1a) and at human TLR8 (Table 1a) was greater than 9 µM throughout.

With `CCCN(CCC)C(=O)C1=Cc2sc(-c3cnn(S(=O)(=O)N4CC(CO)C4)c3)cc2N=C(N)C1` [TAZ-12, 5-amino-2-[1-[3-(hydroxymethyl)azetidin-1-yl]sulfonylpyrazol-4-yl]-N,N-dipropyl-6H-thieno[3,2-b]azepine-7-carboxamide], the EC50 on human TLR7 (Table 1a) and on human TLR8 (Table 1a) was greater than 9 µM each time. For `CCCN(CCC)C(=O)C1=Cc2sc(CCCCCNC(=O)OC(C)(C)C)cc2N=C(N)C1` [TAZ-13, tert-butyl N-[5-[5-amino-7-(dipropylcarbamoyl)-6H-thieno[3,2-b]azepin-2-yl]pentyl]carbamate], the EC50 at human TLR7 (Table 1a) and on human TLR8 (Table 1a) was greater than 9 µM throughout. On to `CCCN(CCC)C(=O)C1=Cc2sc(-c3ccccc3)cc2N=C(N)C1` [TAZ-18, 5-amino-2-phenyl-N,N-dipropyl-6H-thieno[3,2-b]azepine-7-carboxamide], for which the EC50 on human TLR7 (Table 1a) and on human TLR8 (Table 1a) was greater than 9 µM each time.

Consider `CCCN(CCC)C(=O)C1=Cc2sc(-c3cnn(COCC[Si](C)(C)C)c3)cc2N=C(N)C1` [TAZ-19, 5-amino-N,N-dipropyl-2-(1-((2-(trimethylsilyl)ethoxy)methyl)-1H-pyrazol-4-yl)-6H-thieno[3,2-b]azepine-7-carboxamide], for which the EC50 on human TLR7 (Table 1a) and on human TLR8 (Table 1a) was greater than 9 µM throughout. On to `CCCN(CCC)C(=O)C1=Cc2sc(C(=O)OC)cc2N=C(N)C1` [TAZ-20, methyl 5-amino-7-(dipropylcarbamoyl)-6H-thieno[3,2-b]azepine-2-carboxylate], for which the EC50 at human TLR7 (Table 1a) and at human TLR8 (Table 1a) was greater than 9 µM each time. For `CCCN(CCC)C(=O)C1=Cc2sc(-c3cn[nH]c3)cc2N=C(N)C1` [TAZ-21, 5-amino-N,N-dipropyl-2-(1H-pyrazol-4-yl)-6H-thieno[3,2-b]azepine-7-carboxamide], the EC50 on human TLR7 (Table 1a) and on human TLR8 (Table 1a) was greater than 9 µM throughout. Consider `CCCN(CCC)C(=O)C1=Cc2sc(C(=O)O)cc2N=C(N)C1` [TAZ-22, 5-amino-7-(dipropylcarbamoyl)-6H-thieno[3,2-b]azepine-2-carboxylic acid], for which the EC50 at human TLR7 (Table 1a) and at human TLR8 (Table 1a) was greater than 9 µM each time. Take `CCCN(CCC)C(=O)C1=Cc2sc(C(=O)Nc3ccccc3)cc2N=C(N)C1` [TAZ-23, 5-amino-N2-phenyl-N7,N7-dipropyl-6H-thieno [3,2-b]azepine-2,7-dicarboxamide]: the EC50 at human TLR7 (Table 1a) and at human TLR8 (Table 1a) was greater than 9 µM in each case. `CCCN(CCC)C(=O)C1=Cc2sc(C(=O)NCC)cc2N=C(N)C1` [TAZ-24, 5-amino-N2-ethyl-N7,N7-dipropyl-6H-thieno[3,2-b]azepine-2,7-dicarboxamide]: the concentration for a half-maximal effect (EC50) at human TLR7 (Table 1a) and on human TLR8 (Table 1a) was greater than 9 µM each time. In the case of `CCCN(CCC)C(=O)C1=Cc2sc(Cc3ccccc3)cc2N=C(N)C1` [TAZ-26, 5-amino-2-benzyl-N,N-dipropyl-6H-thieno[3,2-b] azepine-7-carboxamide], the concentration for a half-maximal effect (EC50) at human TLR7 (Table 1a) and at human TLR8 (Table 1a) was greater than 9 µM each time.

Take `CCCN(CCC)C(=O)C1=Cc2sc(C(=O)Nc3cncnc3)cc2N=C(N)C1` [TAZ-27, 5-amino-N7,N7-dipropyl-N2-pyrimidin-5-yl-6H-thieno[3,2-b]azepine-2,7-dicarboxamide]: the 50% effective concentration (EC50) on human TLR7 (Table 1a) and on human TLR8 (Table 1a) was greater than 9 µM each time. Regarding `CCCN(CCC)C(=O)C1=Cc2sc3ccccc3c2N=C(N)C1` [TAZ-28, 2-amino-N,N-dipropyl-3H-benzo[4,5]thieno[3,2-b]azepine-4-carboxamide], the EC50 on human TLR7 (Table 1a) and at human TLR8 (Table 1a) was greater than 9 µM in each case. `CCCN(Cc1ccc(CNC(=O)OC(C)(C)C)cc1)C(=O)C1=Cc2sccc2N=C(N)C1` [TAZ-29, tert-butyl (4-((5-amino-N-propyl-6H-thieno[3,2-b]azepine-7-carboxamido)methyl)benzyl)carbamate]: the EC50 on human TLR7 (Table 1a) and at human TLR8 (Table 1a) was greater than 9 µM each time.

`CCCN(CCCc1ccc(CN2CCNCC2)cc1)C(=O)C1=Cc2sccc2N=C(N)C1` [TAZ-37]: the figures for the EC50 on human TLR7 (Table 1b) and at human TLR8 (Table 1b) were greater than 9 µM and 2.94 µM, respectively.

In the case of `CCCN(OCC)C(=O)C1=Cc2sc(COCCCN)cc2N=C(N)C1` [TAZ-73], the EC50 was greater than 9 µM at human TLR7 (Table 1b) and 2.98 µM at human TLR8 (Table 1b). The like results for `CCCN(CCC)C(=O)C1=Cc2sc(COCCNC(=O)OC(C)(C)C)cc2N=C(N)C1` [TAZ-80] were, in that order, 4 µM and 3.79 µM. Take `CCCN(CCCNC(=O)OC1CCC1)C(=O)C1=Cc2sc(CNC(=O)Cc3ccccc3)cc2N=C(N)C1` [TAZ-204]: the 50% effective concentration (EC50) on human TLR8 (Table 1c) turned out to be 2.25 µM.
